Measured values reported in the NIST ThermoML archive (doi:10.1016/j.jct.2014.07.026).

Assay: mn = molality of the nth substance listed, in mol/kg
Details: 100 kPa, Liquid; for mass density: Vibrating tube method; for speed of sound: Frequency=2 MHz, Linear variable-path acoustic interferometer

CCCCn1cc[n+](C)c1.C[C@H](N)C(=O)[O-] [3-butyl-1-methyl-1H-imidazolium L-alaninate] + O
Details	mass density [kg/m3]	speed of sound [m/s]
293.15 K, m1 = 0.03078	999.145	–
293.15 K, m1 = 0.04697	999.63	–
293.15 K, m1 = 0.06646	1000.21	–
293.15 K, m1 = 0.08363	1000.72	–
293.15 K, m1 = 0.0978	1001.14	–
293.15 K, m1 = 0.1393	1002.34	–
293.15 K, m1 = 0.1674	1003.15	–
293.15 K, m1 = 0.2011	1004.09	–
293.15 K, m1 = 0.2513	1005.48	–
293.15 K, m1 = 0.2946	1006.67	–
293.15 K, m1 = 0.3312	1007.64	–
293.15 K, m1 = 0.383	1009.05	–
293.15 K, m1 = 0.4337	1010.33	–
298.15 K, m1 = 0.03078	997.956	–
298.15 K, m1 = 0.04697	998.423	–
298.15 K, m1 = 0.06346	–	1507.5
298.15 K, m1 = 0.06646	998.985	–
298.15 K, m1 = 0.08363	999.477	–
298.15 K, m1 = 0.0978	999.884	–
298.15 K, m1 = 0.1393	1001.05	–
298.15 K, m1 = 0.1428	–	1519.5
298.15 K, m1 = 0.1674	1001.83	–
298.15 K, m1 = 0.1848	–	1526.1
298.15 K, m1 = 0.2011	1002.75	–
298.15 K, m1 = 0.2434	–	1534.3
298.15 K, m1 = 0.2513	1004.09	–
298.15 K, m1 = 0.2946	1005.25	–
298.15 K, m1 = 0.2968	–	1541.6
298.15 K, m1 = 0.3312	1006.21	–
298.15 K, m1 = 0.3455	–	1549.5
298.15 K, m1 = 0.383	1007.55	–
298.15 K, m1 = 0.3934	–	1555.4
298.15 K, m1 = 0.4337	1008.88	–
298.15 K, m1 = 0.4399	–	1561.4
298.15 K, m1 = 0.4872	–	1567.8
298.15 K, m1 = 0.546	–	1576.5
303.15 K, m1 = 0.03078	996.541	–
303.15 K, m1 = 0.04697	996.999	–
303.15 K, m1 = 0.06646	997.554	–
303.15 K, m1 = 0.08363	998.04	–
303.15 K, m1 = 0.0978	998.438	–
303.15 K, m1 = 0.1393	999.57	–
303.15 K, m1 = 0.1674	1000.34	–
303.15 K, m1 = 0.2011	1001.23	–
303.15 K, m1 = 0.2513	1002.54	–
303.15 K, m1 = 0.2946	1003.67	–
303.15 K, m1 = 0.3312	1004.62	–
303.15 K, m1 = 0.383	1005.95	–
303.15 K, m1 = 0.4337	1007.21	–
308.15 K, m1 = 0.03124	994.926	–
308.15 K, m1 = 0.05075	995.469	–
308.15 K, m1 = 0.06032	995.732	–
308.15 K, m1 = 0.08315	996.374	–
308.15 K, m1 = 0.09789	996.775	–
308.15 K, m1 = 0.1399	997.892	–
308.15 K, m1 = 0.181	998.999	–
308.15 K, m1 = 0.2108	999.761	–
308.15 K, m1 = 0.2555	1000.94	–
308.15 K, m1 = 0.2996	1002.03	–
308.15 K, m1 = 0.3385	1003.03	–
308.15 K, m1 = 0.3814	1004.06	–
308.15 K, m1 = 0.4337	1005.37	–
313.15 K, m1 = 0.03124	993.094	–
313.15 K, m1 = 0.05075	993.624	–
313.15 K, m1 = 0.06032	993.886	–
313.15 K, m1 = 0.08315	994.504	–
313.15 K, m1 = 0.09789	994.894	–
313.15 K, m1 = 0.1399	996.012	–
313.15 K, m1 = 0.181	997.076	–
313.15 K, m1 = 0.2108	997.849	–
313.15 K, m1 = 0.2555	998.984	–
313.15 K, m1 = 0.2996	1000.07	–
313.15 K, m1 = 0.3385	1001.05	–
313.15 K, m1 = 0.3814	1002.07	–
313.15 K, m1 = 0.4337	1003.34	–
